From PMC7700685 (International Journal of Molecular Sciences, 2020)
Values joined by “and” are separate entries in the source; they are usually repeats but may differ in a detail not shown here. Identical values can stand only once. “Also recorded” adds a separate entry of the source. Like-named read-outs stand apart in the source and are kept apart here. Each block holds one compound with its values, some of them ahead of it.

What was measured:
[1] = biological target: T1, MTH1 (Homo sapiens, UniProt P36639); conditions: 'it has been reported', no reference given; cited from earlier work
[2] = system: U251MG cells; test: MTT cell viability assay; conditions: 72 h
Procedure: (§2) MTT assays were used to test cell toxicity of compounds. […] After incubation with MTT for 4 h at 37 °C, the culture medium was aspirated and 200 µL DMSO was added to each well to dissolve the formazan crystals, then the absorbance was measured at 540 nm using a Victor 3 Microplate reader (PerkinElmer, Waltham, MA, USA).

[3] = system: beta-tubulin; conditions: cited from earlier work
[4] = MicroPET imaging of normal mice with [11C]TH287; assay type: in vivo
Procedure: The Washington University Animal Studies Committee approved all procedures used for the mouse experiments described in the present study under ACS# 20,170,165 (approved on 9/1/2017). Overall care of the animals was consistent with The Guide for the Care and Use of Laboratory Animals from the National Research Council and the USDA Animal Care Resource Guide. Four male athymic nude mice ([…], 8 weeks old), purchased from Charles River Laboratories (Wilmington, MA, USA), were included for the preliminary microPET imaging evaluation of MTH1 in vivo. […] The imaging sessions were 1 h dynamic scans using the MicroPET® Focus 220 and Inveon scanners (Siemens Medical Solutions USA Molecular Imaging, Knoxville, TN, USA). Acquired list mode data were histogrammed into a 3D set of sinograms and binned to the following time frames: 5 × 60 s, 5 × 2 min, and 9 × 5 min. Sinogram data was then processed using a filter back-projection algorithm with attenuation and scatter corrections. […] The software Acquisition Sinogram Image PROcessing using IDL’s Virtual Machine^TM (ASIPro VM^TM) (Siemens Medical Solutions USA Molecular Imaging, Knoxville, TN, USA) was used to draw ROI and obtain the radioactivity uptake (nCi/c.c.) curve over the time course of the scan, and the uptake data were further normalized by the injected radioactivity dose to get %I.D./cc.

[5] = biological target: T1, MTH1; test: Competitive binding against [3H]TH287 in live U251MG cells; design: endogenous in cells; host or cells: U251MG glioblastoma cells
Procedure: The final concentration of the radioligand in each assay was 4 nM. […] After the reaction was completed, the cells were washed once with ice-cold PBS and the bound radioactivity was counted and analyzed as described above. Nonspecific binding was determined from cells treated with 10 µM TH086. Raclopride, a well-reported selective antagonist for dopamine D₂ receptors, was also used to validate the assay.
The values for Bns and B0 were constrained using experimentally derived values.
Data from competitive radioligand binding studies were transformed to determine the pseudo-Hill coefficient, n’H, defined as:(4) logBs/B0−Bs=n′HlogI−n′HlogIC50
n’H, which is the negative of the Hill slope, was readily determined from the plot of logBs/B0−Bs versus logI .

[6] = biological target: T1, MTH1; test: MTH1 enzymatic inhibition assay (PPiLight inorganic pyrophosphate bioluminescent assay); assay type: biochemical; conditions: substrate dGTP 100 uM, recombinant MTH1 0.5 nM; for IC50: read-out: IC50 inhibiting MTH1 hydrolase activity
Procedure: (§1) The enzymatic hydrolysis of dGTP by purified human recombinant MTH1 to form dGMP and pyrophosphate was applied for screening purposes using a PPiLightTM inorganic pyrophosphate bioluminescent assay—according to published procedures. After shaking and color development, the plates were analyzed in a Victor 3 Microplate reader (PerkinElmer, Waltham, MA, USA) for luminescence. The inhibition assays were conducted using a series of dilutions of standard compounds and new MTH1 inhibitors. The IC50 values were determined by fitting a dose-response curve to the data points using nonlinear regression.

[7] = mouse; N-dealkylation of the aminomethyl substituent, major metabolite TH586; no reference given; cited from earlier work
[8] = biological target: T1, MTH1; test: Competitive inhibition (kinetics) assay of MTH1 hydrolase; assay type: biochemical
Procedure: as §1

[9] = human; N-dealkylation of the aminomethyl substituent, major metabolite TH586; no reference given; cited from earlier work
[10] = in vitro; conditions: human
Procedure: as §2

Structure (SMILES): Nc1cc(-c2cccc(Cl)c2Cl)nc(N)n1 [TH586]
- IC50 [1]: 77 nM

Structure (SMILES): C[C@H](Oc1cc(-c2cnn(C3CCNCC3)c2)cnc1N)c1c(Cl)ccc(F)c1Cl [(S)-crizotinib]
- cell viability compared with vehicle control ([2]; 10 µM): 92.95%
- cell viability compared with vehicle control ([2]; 30 µM): 0.14%

Structure (SMILES): Nc1nc(NC2CC2)cc(-c2cccc(Cl)c2Cl)n1 [TH588]
- concentration inhibiting in vitro beta-tubulin polymerization [3]: higher than 30 µM

Structure (SMILES): [11CH3]Nc1cc(-c2cccc(Cl)c2Cl)nc(N)n1 [[^11C]TH287]
- uptake and clearance from brain, heart and kidney ([4]; ~0.4 mCi via tail vein, 1 h dynamic scan): gets into the brain with rapid clearance from the brain, kidney, and heart; also recorded: high initial uptake and fast clearance; also recorded: rapid brain uptake and fast clearance

- Ki (competitive binding) ([5]; U251MG cells, 4 nM [3H]TH287, Cheng-Prusoff): No binding was detected
- Ki ([5]; read-out: Ki (competitive binding)): > 10000 nM
- IC50 inhibiting MTH1 hydrolase activity [6]: no inhibition
- IC50 [6]: > 10000 nM
Structure (SMILES): CCN1CCC[C@H]1CNC(=O)c1c(O)c(Cl)cc(Cl)c1OC [Raclopride]

Structure (SMILES): CNc1cc(-c2cccc(Cl)c2Cl)nc(N)n1 [TH287, 6-(2,3-Dichlorophenyl)-N4-methylpyrimidine-2,4-diamine]
- blood-brain barrier penetration ([4]; microPET): penetrates the blood-brain barrier of mice with a fast clearance
- metabolism in liver microsomes [7]: rapidly metabolized
- Kmapp of MTH1 ([8]; 2.5 nM TH287 present (Km 305 µM without)): 892 µM
- Ki ([8]; MTH1 0.5 nM, dGTP 0 to 5000 uM, read-out: Ki from kinetics assays): ~1.3 nM and 1.3 nM
- Ki [5]: 3.04 ± 0.14 nM
- pseudo-Hill coefficient n'H ([5]; U251MG cells): 0.88 and 0.88 ± 0.06
- metabolism in liver microsomes [9]: rapidly metabolized
- IC50 [6]: 2.2 nM
- viability at 72 h, 30 µM [10]: 88.9%
- concentration inhibiting in vitro beta-tubulin polymerization [3]: higher than 30 µM
